Columns and labels:
Test in all cases: relative viability (nuclei count vs DMSO), 5 days (fraction); higher = more cells survive
NCI-H2087 = system: NCI-H2087
How it was run: (§1)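 A single step with final 0.05% Triton X-100, 1% formaldehyde and 1 ug/ml Hoechst fixed the cells and stained nuclei 5 days after treatment. Lung cancer cell lines in 1536-well plates had been treated by pin tool the day after seeding with one drug alone or a fixed anchor-drug dose plus five library-drug doses (not always all listed) in √10 steps, and nuclei were counted on 4× images. Relative viability is the ratio of nuclei in treated wells to nuclei in vehicle wells, taken as the median of duplicate plates.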

LU99A = system: LU99A
How it was run: as §1

NCI-H838 = system: NCI-H838
How it was run: as §1

HCC-827 = system: HCC-827
How it was run: as §1

LCLC-103H = system: LCLC-103H
How it was run: as §1

SK-MES-1 = system: SK-MES-1
How it was run: as §1

NCI-H1651 = system: NCI-H1651
How it was run: as §1

EPLC-272H = system: EPLC-272H
How it was run: as §1

NCI-H1793 = system: NCI-H1793
How it was run: as §1

NCI-H1395 = system: NCI-H1395
How it was run: as §1

EMC-BAC-2 = system: EMC-BAC-2
How it was run: as §1

NCI-H1944 = system: NCI-H1944
How it was run: as §1

COR-L23 = system: COR-L23
How it was run: as §1

NCI-H2023 = system: NCI-H2023
How it was run: as §1

HCC-44 = system: HCC-44
How it was run: as §1

NCI-H1563 = system: NCI-H1563
How it was run: as §1

NCI-H2085 = system: NCI-H2085
How it was run: as §1

NCI-H2405 = system: NCI-H2405
How it was run: as §1

H3255 = system: H3255
How it was run: as §1

NCI-H520 = system: NCI-H520
How it was run: as §1

NCI-H650 = system: NCI-H650
How it was run: as §1

ChaGo-K-1 = system: ChaGo-K-1
How it was run: as §1

## CCN(CC)CCCCNc1ncc2cc(-c3cc(OC)cc(OC)c3)c(NC(=O)NC(C)(C)C)nc2n1 + CS(=O)(=O)N1CCN(Cc2cc3nc(-c4cccc5[nH]ncc45)nc(N4CCOCC4)c3s2)CC1 [Pictilisib] (partner 1 µM)
NCI-H2087; first compound 0.01 µM
  relative viability: 0.784
NCI-H2087; first compound 0.03162 µM
  relative viability: 0.827
NCI-H2087; first compound 0.1 µM
  relative viability: 0.918
NCI-H2087; first compound 0.3162 µM
  relative viability: 0.961
NCI-H2087; first compound 1 µM
  relative viability: 0.984
LU99A; first compound 0.01 µM
  relative viability: 0.31
LU99A; first compound 0.03162 µM
  relative viability: 0.396
LU99A; first compound 0.1 µM
  relative viability: 0.345
LU99A; first compound 0.3162 µM
  relative viability: 0.313
LU99A; first compound 1 µM
  relative viability: 0.277
NCI-H838; first compound 0.01 µM
  relative viability: 0.441
NCI-H838; first compound 0.03162 µM
  relative viability: 0.4
NCI-H838; first compound 0.1 µM
  relative viability: 0.395
NCI-H838; first compound 0.3162 µM
  relative viability: 0.383
NCI-H838; first compound 1 µM
  relative viability: 0.244
HCC-827; first compound 0.01 µM
  relative viability: 1.03
HCC-827; first compound 0.03162 µM
  relative viability: 0.992
HCC-827; first compound 0.1 µM
  relative viability: 0.886
HCC-827; first compound 0.3162 µM
  relative viability: 1.06
HCC-827; first compound 1 µM
  relative viability: 1.02
LCLC-103H; first compound 0.01 µM
  relative viability: 0.551
LCLC-103H; first compound 0.03162 µM
  relative viability: 0.661
LCLC-103H; first compound 0.1 µM
  relative viability: 0.595
LCLC-103H; first compound 0.3162 µM
  relative viability: 0.553
LCLC-103H; first compound 1 µM
  relative viability: 0.443
SK-MES-1; first compound 0.01 µM
  relative viability: 0.307
SK-MES-1; first compound 0.03162 µM
  relative viability: 0.334
SK-MES-1; first compound 0.1 µM
  relative viability: 0.406
SK-MES-1; first compound 0.3162 µM
  relative viability: 0.425
SK-MES-1; first compound 1 µM
  relative viability: 0.348
NCI-H1651; first compound 0.01 µM
  relative viability: 0.693
NCI-H1651; first compound 0.03162 µM
  relative viability: 0.706
NCI-H1651; first compound 0.1 µM
  relative viability: 0.624
NCI-H1651; first compound 0.3162 µM
  relative viability: 0.466
NCI-H1651; first compound 1 µM
  relative viability: 0.275
EPLC-272H; first compound 0.01 µM
  relative viability: 0.288
EPLC-272H; first compound 0.1 µM
  relative viability: 0.33
EPLC-272H; first compound 0.3162 µM
  relative viability: 0.298
EPLC-272H; first compound 1 µM
  relative viability: 0.184
NCI-H1793; first compound 0.01 µM
  relative viability: 0.286
NCI-H1793; first compound 0.1 µM
  relative viability: 0.322
NCI-H1793; first compound 0.3162 µM
  relative viability: 0.233
NCI-H1793; first compound 1 µM
  relative viability: 0.224
NCI-H1395; first compound 0.03162 µM
  relative viability: 0.486
NCI-H1395; first compound 0.1 µM
  relative viability: 0.949
NCI-H1395; first compound 0.3162 µM
  relative viability: 0.479
NCI-H1395; first compound 1 µM
  relative viability: 0.346
EMC-BAC-2; first compound 0.01 µM
  relative viability: 0.581
EMC-BAC-2; first compound 0.03162 µM
  relative viability: 0.507
EMC-BAC-2; first compound 0.1 µM
  relative viability: 0.546
EMC-BAC-2; first compound 0.3162 µM
  relative viability: 0.574
EMC-BAC-2; first compound 1 µM
  relative viability: 0.456
NCI-H1944; first compound 0.01 µM
  relative viability: 0.362
NCI-H1944; first compound 0.03162 µM
  relative viability: 0.327
NCI-H1944; first compound 0.1 µM
  relative viability: 0.367
NCI-H1944; first compound 0.3162 µM
  relative viability: 0.352
NCI-H1944; first compound 1 µM
  relative viability: 0.341
COR-L23; first compound 0.01 µM
  relative viability: 0.781
COR-L23; first compound 0.03162 µM
  relative viability: 0.955
COR-L23; first compound 0.1 µM
  relative viability: 0.824
COR-L23; first compound 0.3162 µM
  relative viability: 0.809
COR-L23; first compound 1 µM
  relative viability: 0.8
NCI-H2023; first compound 0.01 µM
  relative viability: 0.22
NCI-H2023; first compound 0.03162 µM
  relative viability: 0.222
NCI-H2023; first compound 0.1 µM
  relative viability: 0.221
NCI-H2023; first compound 0.3162 µM
  relative viability: 0.232
NCI-H2023; first compound 1 µM
  relative viability: 0.193
HCC-44; first compound 0.01 µM
  relative viability: 0.687
HCC-44; first compound 0.03162 µM
  relative viability: 0.746
HCC-44; first compound 0.1 µM
  relative viability: 0.603
HCC-44; first compound 0.3162 µM
  relative viability: 0.635
HCC-44; first compound 1 µM
  relative viability: 0.451
NCI-H1563; first compound 0.01 µM
  relative viability: 0.63
NCI-H1563; first compound 0.03162 µM
  relative viability: 0.636
NCI-H1563; first compound 0.1 µM
  relative viability: 0.634
NCI-H1563; first compound 0.3162 µM
  relative viability: 0.529
NCI-H1563; first compound 1 µM
  relative viability: 0.425
NCI-H2085; first compound 0.01 µM
  relative viability: 0.432
NCI-H2085; first compound 0.03162 µM
  relative viability: 0.46
NCI-H2085; first compound 0.1 µM
  relative viability: 0.233
NCI-H2085; first compound 0.3162 µM
  relative viability: 0.512
NCI-H2085; first compound 1 µM
  relative viability: 0.46
NCI-H2405; first compound 0.01 µM
  relative viability: 0.361
NCI-H2405; first compound 0.03162 µM
  relative viability: 0.412
NCI-H2405; first compound 0.1 µM
  relative viability: 0.586
NCI-H2405; first compound 0.3162 µM
  relative viability: 0.531
NCI-H2405; first compound 1 µM
  relative viability: 0.404
H3255; first compound 0.01 µM
  relative viability: 0.421
H3255; first compound 0.03162 µM
  relative viability: 0.485
H3255; first compound 0.1 µM
  relative viability: 0.569
H3255; first compound 0.3162 µM
  relative viability: 0.514
H3255; first compound 1 µM
  relative viability: 0.501
NCI-H520; first compound 0.01 µM
  relative viability: 0.292
NCI-H520; first compound 0.03162 µM
  relative viability: 0.301
NCI-H520; first compound 0.1 µM
  relative viability: 0.264
NCI-H520; first compound 0.3162 µM
  relative viability: 0.225
NCI-H520; first compound 1 µM
  relative viability: 0.146
NCI-H650; first compound 0.01 µM
  relative viability: 0.874
NCI-H650; first compound 0.03162 µM
  relative viability: 0.889
NCI-H650; first compound 0.1 µM
  relative viability: 0.973
NCI-H650; first compound 0.3162 µM
  relative viability: 0.998
NCI-H650; first compound 1 µM
  relative viability: 0.925
ChaGo-K-1; first compound 0.01 µM
  relative viability: 0.551
ChaGo-K-1; first compound 0.03162 µM
  relative viability: 0.559
ChaGo-K-1; first compound 0.1 µM
  relative viability: 0.95
ChaGo-K-1; first compound 0.3162 µM
  relative viability: 0.98
ChaGo-K-1; first compound 1 µM
  relative viability: 0.437
